Results as given in patent publication US9512066B2, “Enhancers of protein degradation” (MAX-DELBRUCK-CENTRUM FUR MOLEKULARE MEDIZIN, priority 2009, dated 2016).
In brackets after ≈: the same amount, converted by molar mass.

Experiments:
[1] = molecular target: BSA (Bos taurus, UniProt P02769); experiment: Hydrazone hydrolysis in ammonium acetate solution with addition of BSA (RP-HPLC); type: physicochemical; settings: bovine, BSA (5 µM) in ammonium acetate solution, 20 μM hydrazone, 10 mM ammonium acetate, read-out: free soluble hydrazone after addition of BSA (converted)
Sequence of BSA (P02769 25-607): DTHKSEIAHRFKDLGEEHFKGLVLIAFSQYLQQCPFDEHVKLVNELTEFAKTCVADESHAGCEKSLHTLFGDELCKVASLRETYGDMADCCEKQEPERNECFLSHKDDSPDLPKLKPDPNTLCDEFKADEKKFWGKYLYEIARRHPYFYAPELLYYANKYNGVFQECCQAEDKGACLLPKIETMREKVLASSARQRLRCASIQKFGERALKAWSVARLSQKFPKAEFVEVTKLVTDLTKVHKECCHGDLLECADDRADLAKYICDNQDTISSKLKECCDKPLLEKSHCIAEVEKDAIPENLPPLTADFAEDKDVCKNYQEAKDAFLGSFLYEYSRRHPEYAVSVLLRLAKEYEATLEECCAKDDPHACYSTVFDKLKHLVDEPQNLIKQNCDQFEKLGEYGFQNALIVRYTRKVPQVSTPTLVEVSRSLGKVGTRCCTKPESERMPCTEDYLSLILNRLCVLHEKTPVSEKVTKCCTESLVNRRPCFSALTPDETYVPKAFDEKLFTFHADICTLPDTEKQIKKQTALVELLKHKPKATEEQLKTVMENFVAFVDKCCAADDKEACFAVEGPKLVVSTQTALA
Method: FIG. 4 illustrates the difference in the hydrazone hydrolysis with and without the addition of BSA of product example 1. A freshly prepared 10 mM methanol solution of product example 1 was diluted with an ammonium acetate (10 mM) BSA (5 μM) solution to a final concentration of 20 μM. The free soluble hydrazone was analyzed via RP-HPLC over a sample period of 24 h. The injection volume was 20 μL, the sample was stored at room temperature. The hydrazone peak was exploited for the determination of the hydrazone concentration. After the addition of BSA approximately […] of the available hydrazone was directly associated to the protein. Afterwards, the free hydrazone concentration was almost constant, between 96% and 91%, over the sample period.

[2] = Insolubility observed in the HepG2 viability assay; type: physicochemical; settings: RPMI culture medium of the HepG2 viability assay, 37 °C, kinetic from dmso stock, RPMI medium (1% L-Glu, 10% FCS), read-out: concentration from/at which insoluble
Method: Cell viability was assayed on HepG2 cells. HepG2 cells were cultured in 96-well black culture plates with transparent bottom in RPMI medium (1% L-Glu, 10% FCS). 3 hours after plating, different drug concentrations (0.1 μM-100 μM) or DMSO as control were added. Chlorpromazine hydrochloride (Sigma, # C0982) and cycloheximide (Sigma, # C1988) were used as control substances. Each concentration was run in triplicates. After 48 hours of incubation, Alamar Blue reagent (BIOSOURCE, # DAL1100) was added and plates were incubated for 4 hours at […]. Absorbance was measured in the Tecan-plate reader (Tecan, infinite M200) at 570 nm and 600 nm. Product example 1 was insoluble from a concentration of 50 μM, product example 33 from 30 μM and product example 23 at 100 μM.

[3] = tested on: tubulin; experiment: Tubulin polymerization assay (Cytoskeleton, Inc.); type: biochemical; settings: various concentrations
Method: The tubulin polymerization assay (Cytoskeleton, Inc., Denver, Colo., USA, #BK011) was performed in accordance to the instruction manual.

[4] = tested on: HTT-Q53 protein; experiment: GST-Htt-Q53 filter assay with conformational CAG antibody; type: biochemical; settings: samples at 0, 4, 5 and 6 h, 30° C.
Method: GST-Htt-Q53-protein stock solution was ultra-centrifugated (40 min, 55.000 rpm [TLA-55 rotor], 4° C.); the supernatant was diluted with H2O to a final concentration of 2 μM. DMSO as a control, or drugs at various concentrations were added to the supernatant of GST-Htt-Q53 protein which was preincubated with PreScission Protease (GE Healthcare, #27-0843-01) in Tris-buffer (A:B=1:1; A:50 mM Tris, 150 mM NaCl, pH=6.8; B:1 mM EDTA, pH=8.0+10 mM DTT) and incubated at 30° C. (300 rpm). Samples were taken at 0, 4, 5 and 6 h. The samples were diluted with SDS-buffer (4% SDS, 100 mM DTT) and heated at 98° C. for 5 min. Samples were filtered through a cellulose-acetate membrane which was equilibrated with SDS solution (0.1%). The membrane was washed twice (SDS, 0.1%), blocked with skim milk (3% in PBS) for 30 min and developed with CAG antibody over night at 4° C. and with peroxidase labeled anti rabbit-antibody for 1 h at room temperature. The membrane was washed (2×TBS-0.05% Tween-20, 2×TBS) and luminescence was recorded with Chem Glow.

## Oc1ccc(C=NNc2c(Cl)cc(C(F)(F)F)cc2Cl)c(O)c1 [Example 1, 4-((2-(2,6-Dichloro-4-(trifluoromethyl)phenyl)hydrazono)methyl)benzene-1,3-diol]
[1]
  fraction unbound at 20 µM: ~0.83
[2]
  solubility: ≥ 50 µM
[3]
  effect on tubulin polymerization: no effect
[4]
  change in conformation of the HTT-Q53 protein detected by the conformational CAG antibody: time-dependent change in conformation

## Oc1ccc(C=NNc2c(F)c(F)c(F)c(F)c2F)c(O)c1 [Example 23, 4-((2-(Perfluorophenyl)hydrazono)methyl)benzene-1,3-diol]
[2]
  solubility: 100 µM (≈ 31.8 µg/mL)
[4]
  change in conformation of the HTT-Q53 protein detected by the conformational CAG antibody: time-dependent change in conformation

## O=[N+]([O-])c1ccc(NN=Cc2ccc(O)cc2O)cc1 [Example 33, 4-((2-(4-Nitrophenyl)hydrazono)methyl)benzene-1,3-diol]
[2]
  solubility: ≥ 30 µM
